# Test system: genotype A, "Long" strain RSV
# Experiment: RSV-A in vitro cytoprotection assay in HEp-2 cells (ATPlite readout of cell viability)
# Assay type: cell-based, Human respiratory syncytial virus
# Settings: human respiratory syncytial virus, HEp-2, HEp-2 cells, genotype A “Long” strain RSV, cytoprotection; read-out: Human RSV-A (“Long” strain) EC50
# In short: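 Cytoprotection measured as ATP-based luminescence (ATPlite) after 4-day incubation of RSV Long-infected HEp-2 cells (8,000/well, 10% FBS DMEM) with 2-fold serial compound dilutions in duplicate. Identically treated virus-free plate gives cytotoxicity; EC50 calculated from viability.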
row,SMILES,EC50
1,O=C(NC1CC1)c1cc2c(s1)-c1ccccc1N(C(=O)c1ccc(Cl)c(-c3ccnc(N4CCOCC4)c3)n1)CC2 [Example 93],> 800 nM
2,O=C(N[C@H]1CCOC1)c1cc2c(s1)-c1ccccc1N(C(=O)c1cccc(-c3c[nH]nc3C3CC3)n1)CC2 [Example 177],< 400 nM
3,O=C(NC1CC1)c1cc2c(s1)-c1ccccc1N(C(=O)c1ccc3ccc(N4CCOCC4)nc3c1)CC2 [Example 297],> 800 nM
4,Cc1cccc(F)c1NC(=O)c1cc2c(s1)-c1ccccc1N(C(=O)c1cccc(-c3ccc4c(c3)CNC4=O)n1)CC2 [Example 194],400 to 800 nM
5,Cc1cccc(F)c1NC(=O)c1cc2c(s1)-c1ccccc1N(C(=O)c1cccc(NCCO)n1)CC2 [Example 329],> 800 nM
6,Cc1cccc(F)c1NC(=O)c1cc2c(s1)-c1ccccc1N(C(=O)c1ccc(-c3cn(S(C)(=O)=O)c4ncccc34)cc1)CC2 [Example 268],> 800 nM
7,Cc1cccc(F)c1NC(=O)c1cc2c(s1)-c1ccccc1N(C(=O)c1cccc(N3CCCS(=O)(=O)c4ccccc43)n1)CC2 [Example 406],400 to 800 nM
8,Cc1cccc(F)c1NC(=O)c1cc2c(s1)-c1ccccc1N(C(=O)c1cccc(N3CCS(=O)(=O)CC3)n1)CC2 [Example 418],< 400 nM
9,CN(C)c1ccc(-c2cccc(C(=O)N3CCc4cc(C(=O)NC5CC5)sc4-c4ccccc43)n2)cn1 [Example 82],> 800 nM
10,Cc1cccc(F)c1NC(=O)c1cc2c(s1)-c1ccccc1N(C(=O)c1cccc(N(C)Cc3cccc(-c4ccccc4)c3)n1)CC2 [Example 352],400 to 800 nM
11,COCCN(c1cccc(C(=O)N2CCc3cc(C(=O)Nc4c(C)cccc4F)sc3-c3ccccc32)n1)S(C)(=O)=O [Example 423],> 800 nM
12,CNC(=O)n1cc(-c2cccc(C(=O)N3CCc4cc(C(=O)Nc5c(C)cccc5F)sc4-c4ccccc43)n2)c(C2CC2)n1 [Example 217],< 400 nM
13,Nc1cccc2c1C(=O)N(c1cccc(C(=O)N3CCc4cc(C(=O)NC5CC5)sc4-c4ccccc43)n1)C2 [Example 413],> 800 nM
14,Cc1cccc(F)c1NC(=O)c1cc2c(s1)-c1ccccc1N(C(=O)c1cccc(-c3ccc4nccc(Cl)c4c3)n1)CC2 [Example 189],> 800 nM
15,Cc1cccc(F)c1NC(=O)c1cc2c(s1)-c1cccc(F)c1N(C(=O)c1cccc(-c3c[nH]c4ncccc34)n1)CC2 [Example 259],< 400 nM
16,Cc1cccc(F)c1NC(=O)c1cc2c(s1)-c1ccccc1N(C(=O)c1cccc(-c3cnn(S(=O)(=O)C4CC4)c3C3CC3)n1)CC2 [Example 222],400 to 800 nM
17,Cc1cccc(F)c1NC(=O)c1cc2c(s1)-c1ccccc1N(C(=O)c1cccc(-c3cn(C(=O)OC(C)(C)C)c4c(Cl)cccc34)n1)CC2 [Example 250],400 to 800 nM
18,COCCN(c1ccccc1)c1cccc(C(=O)N2CCc3cc(C(=O)Nc4c(C)cccc4F)sc3-c3ccccc32)n1 [Example 115],< 400 nM
19,Cc1cccc(F)c1NC(=O)c1cc2c(s1)-c1ccccc1N(C(=O)c1cccc(N3CCCC(F)(F)CC3)n1)CC2 [Example 403],< 400 nM
20,COc1ccc(-c2cccc(C(=O)N3CCc4ccc(C(=O)NC5CC5)cc4-c4ccccc43)n2)cn1 [Example 105],> 800 nM
21,Cc1cccc(F)c1NC(=O)c1cc2c(s1)-c1ccccc1N(C(=O)c1cccc(NCc3ncco3)n1)CC2 [Example 350],< 400 nM
22,Cc1cccc(F)c1NC(=O)c1cc2c(s1)-c1ccccc1N(C(=O)c1cccc(-n3cncc3C3CC3)n1)CC2 [Example 148],> 800 nM

row,SMILES,EC50
1,Cc1cccc(F)c1NC(=O)c1cc2c(s1)-c1ccccc1N(C(=O)c1cccc(-c3c[nH]c4c(C)cccc34)n1)CC2 [Example 253],< 400 nM
2,COc1ncc(-c2cccc(C(=O)N3CCc4cc(C(=O)NC5CC5)sc4-c4ccccc43)n2)cc1C [Example 163],< 400 nM
3,Cc1cccc(F)c1NC(=O)c1cc2c(s1)-c1ccccc1N(C(=O)c1cccc(N3CCCN(S(=O)(=O)C4(C)CC4)CC3)n1)CC2 [Example 383],< 400 nM
4,Cc1cccc(F)c1NC(=O)c1cc2c(s1)-c1ccccc1N(C(=O)c1cccc(N3CCC[C@@H]3c3ccccc3)n1)CC2 [Example 473],< 400 nM
5,COCCN(CC(C)C)c1cccc(C(=O)N2CCc3cc(C(=O)Nc4c(C)cccc4F)sc3-c3ccccc32)n1 [Example 118],< 400 nM
6,Cc1cccc(F)c1NC(=O)c1cc2c(s1)-c1ccccc1N(C(=O)c1cccc(-c3ccnn3C(C)C)n1)CC2 [Example 236],< 400 nM
7,CCn1nccc1-c1cccc(C(=O)N2CCc3cc(C(=O)Nc4c(C)cccc4F)oc3-c3ccccc32)n1 [Example 273],> 800 nM
8,Cc1cccc(F)c1NC(=O)c1cc2c(s1)-c1ccccc1N(C(=O)c1cccc(N[C@H]3CCOC3)n1)CC2 [Example 457],< 400 nM
9,Cc1cccc(F)c1NC(=O)c1cc2c(s1)-c1ccccc1N(C(=O)c1cccc(N3CC4(C3)CS(=O)(=O)C4)n1)CC2 [Example 428],> 800 nM
10,O=C1CN(c2cccc(C(=O)N3CCc4cc(C(=O)NC5CC5)sc4-c4ccccc43)n2)CCN1 [Example 22],400 to 800 nM
11,Cc1cnc(N2CC3(CCOCC3)C2)c(NS(=O)(=O)c2ccc(C(=O)N3CCc4cc(C(=O)Nc5c(C)cccc5F)sc4-c4ccccc43)cc2)c1 [Example 133],> 800 nM
12,COc1ccc(-c2cccc(C(=O)N3CCc4cc(C(=O)Nc5ccccc5)sc4-c4ccccc43)n2)cn1 [Example 168],> 800 nM
13,Cc1cccc(F)c1NC(=O)c1cc2c(s1)-c1ccccc1N(C(=O)c1ccc(NC(=O)NCCN3CCOCC3)cc1)CC2 [Example 129],> 800 nM
14,COc1ccccc1C(C)(C)Nc1cccc(C(=O)N2CCc3cc(C(=O)NC4CC4)sc3-c3ccccc32)n1 [Example 322],> 800 nM
15,Cc1cccc(F)c1NC(=O)c1cc2c(s1)-c1ccccc1N(C(=O)c1cccc(N3CC(S(C)(=O)=O)C3)n1)CC2 [Example 441],> 800 nM
16,O=C(N[C@@H]1CCOC1)c1cc2c(s1)-c1ccccc1N(C(=O)c1cccc(-c3c[nH]nc3C3CC3)n1)CC2 [Example 176],< 400 nM
17,O=C(NC1CC1)c1cc2c(s1)-c1ccccc1N(C(=O)c1ccc(F)c(-c3ccnc(N4CCOCC4)c3)n1)CC2 [Example 71],400 to 800 nM
18,Cc1cccc(F)c1NC(=O)c1cc2c(o1)-c1ccccc1N(C(=O)c1ccc(NC(=O)c3cccnc3N3CC4(CCOCC4)C3)cc1)CC2 [Example 135],< 400 nM
19,Cc1cccc(F)c1NC(=O)c1cc2c(s1)-c1ccccc1N(C(=O)c1cccc(N3C[C@@H](NC(=O)OC(C)(C)C)C[C@@H]3C)n1)CC2 [Example 389],< 400 nM
20,Cc1cccc(F)c1NC(=O)c1cc2c(s1)-c1ccccc1N(C(=O)c1cccc(N3CCCOCC3)n1)CC2 [Example 323],< 400 nM
21,Cc1cccc(F)c1NC(=O)c1cc2c(s1)-c1ccccc1N(C(=O)c1cccc(NC(C)(C)c3ccccn3)n1)CC2 [Example 358],< 400 nM
22,COc1cccc(CN(C)c2cccc(C(=O)N3CCc4cc(C(=O)NC5CC5)sc4-c4ccccc43)n2)c1 [Example 296],> 800 nM

row,SMILES,EC50
1,O=C(NC1CC1)c1cc2c(s1)-c1ccccc1N(C(=O)c1ccnc(N3CCOCC3)c1)CC2 [Example 46],> 800 nM
2,CN(C)c1cc(-c2cccc(C(=O)N3CCc4cc(C(=O)NC5CC5)sc4-c4ccccc43)n2)ccn1 [Example 84],400 to 800 nM
3,O=C(NC1CC1)c1cc2c(s1)-c1ccccc1N(C(=O)c1cccc(N3CCOc4cc(Br)ccc4C3)n1)CC2 [Example 281],< 400 nM
4,Cc1cc(-c2ccc(C(=O)N3CCc4cc(C(=O)Nc5c(C)cccc5F)sc4-c4ccccc43)cc2)n[nH]1 [Example 270],> 800 nM
5,Cc1cccc(F)c1NC(=O)c1cc2c(s1)-c1ccccc1N(C(=O)c1cccc(NC(C)CS(C)(=O)=O)n1)CC2 (stereo not shown) [Example 464],> 800 nM
6,Cc1cccc(F)c1NC(=O)c1cc2c(s1)-c1ccccc1N(C(=O)c1cccc(N3CCC4(COC4)C3)n1)CC2 [Example 427],> 800 nM
7,COCCNC(=O)c1cc2c(s1)-c1ccccc1N(C(=O)c1cccc(N3CCCOCC3)n1)CC2 [Example 101],< 400 nM
8,COCCn1cc(-c2cccc(C(=O)N3CCc4cc(C(=O)NC5CC5)sc4-c4ccccc43)n2)cn1 [Example 160],> 800 nM
9,Cc1cccc(F)c1NC(=O)c1cc2c(s1)-c1ccccc1N(C(=O)c1cccc(-c3conc3C)n1)CC2 [Example 261],< 400 nM
10,Cc1cnc(N2CCC3(COC3)C2)c(NC(=O)c2ccc(C(=O)N3CCc4cc(C(=O)Nc5c(C)cccc5F)sc4-c4ccccc43)cc2)c1 [Example 139],> 800 nM
11,Cc1cccc(F)c1NC(=O)c1cc2c(s1)-c1ccccc1N(C(=O)c1cccc(-c3cn(CCS(C)(=O)=O)nc3C3CC3)n1)CC2 [Example 227],> 800 nM
12,O=C(NC1CC1)c1cc2c(s1)-c1ccccc1N(C(=O)c1cccc(N3CCOCC3)n1)CC2 [Example 16],400 to 800 nM
13,CC(=O)NCCN(C)c1cccc(C(=O)N2CCc3cc(C(=O)Nc4c(C)cccc4F)sc3-c3ccccc32)n1 [Example 372],400 to 800 nM
14,COc1ccc(Oc2cccc(C(=O)N3CCc4cc(C(=O)Nc5c(C)cccc5F)sc4-c4ccccc43)n2)nc1 [Example 408],> 800 nM
15,CNC(=O)CCN(C)c1cccc(C(=O)N2CCc3cc(C(=O)Nc4c(C)cccc4F)sc3-c3ccccc32)n1 [Example 324],400 to 800 nM
16,O=C(NC1CC1)c1cc2c(s1)-c1ccccc1N(C(=O)c1cc(N3CCCOCC3)ncn1)CC2 [Example 50],> 800 nM
17,O=C(NC1CC1)c1cc2c(s1)-c1ccccc1N(C(=O)c1cccc(-c3cnn(C4CCOC4)c3)n1)CC2 (stereo not shown) [Example 159],> 800 nM
18,O=C(NC1CC1)c1cc2c(s1)-c1ccccc1N(C(=O)c1cccc(-c3ccc(N4CCCOCC4)nc3)n1)CC2 [Example 90],400 to 800 nM
19,O=C(c1cccc(N2CCCOCC2)n1)N1CCc2cc(S(=O)(=O)NC3CCOCC3)sc2-c2ccccc21 [Example 318],> 800 nM
20,Cc1cccc(F)c1NC(=O)c1cc2c(s1)-c1ccccc1N(C(=O)c1cccc(N3C(=O)OC[C@@H]3c3ccccc3)n1)CC2 [Example 425],< 400 nM

# — US10759816B2, “Heterocyclic compounds as RSV inhibitors” (Enanta Pharmaceuticals, Inc., priority 2016, dated 2020)
